Values belong to the molecule of their own block, whether it stands above or below them.
Columns and labels:
[1] = Presence of prodrug in mouse and absorbency (plasma AUC after oral administration); assay type: in vivo; conditions: male, Balb/cA, mouse, 9.9 umol/kg, mice, 9.9 μmol/kg, administered compound itself in plasma, read-out: AUC0-6hr
Experimental: The dosage amounts of the compounds of Comparative Examples 1 to 5 and Examples 1 to 26 are those (mole/10 mL/kg) shown in Tables. Solutions for administration were prepared with an 0.5% aqueous solutions of HPMC so as to satisfy the dosage amounts.
Note that, the “amount of mole/10 mL/kg” means as follows: for example “10 mmol/10 mL/kg” means that 10 mmol of a test compound per body-weight (1 kg) of a mouse was dispersed or dissolved in a solution (10 mL) for administration. The same applies hereinafter.
The solutions for administration prepared above were orally administered to mice (Balb/cA, male) not fasted each by use of an oral administration sonde.
The mice were anesthetized with isoflurane 0.5, 1, 2, 4 and 6 hours after administration and blood was taken from the facial vein by use of a specific needle (animal lancet) and a heparin-coated hematocrit tube.
The blood sampled was immediately centrifuged (13000 rpm, 2 minutes, 4° C.) to prepare the plasma samples. After proteins were removed from the plasma samples, the concentrations of the test compound in the plasma samples were measured by LC/MS/MS.
The value of “area under the curve” (AUC) of drug concentration in blood versus time was calculated using analysis software such as Phoenix (registered trademark) WinNonlin (registered trademark).
In Table 3, “Comparative Example 1” and “Comparative Example 2” represent the “compound (Br form) of Comparative Example 1” and the “compound (I form) of Comparative Example 2”, respectively. In Table 4, “Comparative Example 6” represents the “compound (C1 form) of Comparative Example 6”.

A431 = experiment: Growth suppression activity to human tumor cell line (Evaluation 2); assay type: cell-based; conditions: Homo sapiens, A-431, 72 h, Human epidermoid carcinoma, A431, 3 days
Experimental: (§1) Human tumor cell lines different in type were suspended in mediums, seeded in individual wells of a multi-well plate and cultured. On the day after initiation of culture, serially diluted solutions of a compound were added. Culture was carried out for further 3 days. Cells were counted by a CellTiter-Glo (manufactured by Promega KK) in accordance with the protocol recommended by Promega KK. Cell viability was calculated in accordance with the equation shown below and the concentration (IC50 (nM)) of the compound at which 50% of cell growth is inhibited was obtained.
(§2) T: Intensity of light emitted from a well containing a compound
(§3) C: Intensity of light emitted from a well containing no compound

A549 = experiment: as above; assay type: cell-based; conditions: A549, 72 h, Human lung cancer, A549, 3 days
Experimental: as §1, §2, §3

H1650 = experiment: as above; assay type: cell-based; conditions: NCI-H1650, 72 h, Human lung cancer, H1650, 3 days
Experimental: as §1, §2, §3

H2122 = experiment: as above; assay type: cell-based; conditions: NCI-H2122, 72 h, Human lung cancer, H2122, 3 days
Experimental: as §1, §2, §3

H358 = experiment: as above; assay type: cell-based; conditions: NCI-H358, 72 h, Human lung cancer, H358, 3 days
Experimental: as §1, §2, §3

HCC827 = experiment: as above; assay type: cell-based; conditions: Homo sapiens, HCC827, 72 h, Human lung cancer, HCC827, 3 days
Experimental: as §1, §2, §3

RKO = experiment: as above; assay type: cell-based; conditions: 72 h, Human colorectal cancer, 3 days
Experimental: as §1, §2, §3

SK-BR-3 = experiment: as above; assay type: cell-based; conditions: Homo sapiens, SK-BR-3, 72 h, Human breast cancer, SK-BR-3, 3 days
Experimental: as §1, §2, §3

A427 = experiment: Growth suppression activity to human tumor cell line (Evaluation 3); assay type: cell-based; conditions: A-427, 72 h; Human lung cancer, A427, 3 days
Experimental: as §1, with “of a” for “of the”
as §2, §3

H520 = experiment: as above; assay type: cell-based; conditions: NCI-H520, 72 h; Human lung cancer, H520, 3 days
Experimental: as §1, with “of a” for “of the”
as §2, §3

[2] = tested on: human brain tumor cell line (U-87 MG); experiment: Evaluation 1 of antitumor effect and toxicity in mouse (U-87 MG subcutaneous transplant); assay type: in vivo, BALB/cA Jcl-nu/nu mice
Experimental: (§4) The day of grouping mice was determined Day 0.
IRs of Comparative Example 2-compound administration group and Example 1-compound administration group on the final day of evaluation (Day 6 in Comparative Example 2 and Day 13 in Example 1) are shown in FIG. 1 and BWC versus elapsed days is shown in FIG. 2.

[3] = tested on: human hematopoietic organ tumor cell line (MV-4-11); experiment: Evaluation 3 of antitumor effect and toxicity in mouse (MV-4-11 subcutaneous transplant); assay type: in vivo
Experimental: as §4
On the final day of evaluation, the blood cell components (lymphocytes: LYMPH (Lymphocytes)) of individual groups were analyzed.

[4] = tested on: human brain tumor cell line (U-87 MG); experiment: Evaluation 2 of antitumor effect and toxicity in mouse (U-87 MG subcutaneous transplant); assay type: in vivo, BALB/cA Jcl-nu/nu mice; conditions: Day 6, oral every day, Example 5 14.6 mg/kg/day vs Comparative Example 2 12 mg/kg/day
Experimental: as §4
In order to evaluate “effect versus toxicity”, a ratio based on IR and BWC (effect index) was obtained, and Example 5-compound administration group was compared to Comparative Example 2-compound administration group.
Effect indexes of Comparative Example 2-Compound (I form) and Example 5-compound administration groups on Day 6 are shown in FIG. 3.

[5] = U-87 MG, oral every day from Day 1, Example 1 15.4 mg/kg/day
[6] = MV-4-11, oral every day from Day 1, Example 1 10.8 mg/kg/day

AUC(0-t) [1]: 2.07 µM·h
IC50 (A431): 124 nM
IC50 (A549): 54 nM
IC50 (H1650): 31 nM
IC50 (H2122): 58 nM
IC50 (H358): 273 nM
IC50 (HCC827): 795 nM
IC50 (RKO): 135 nM
IC50 (SK-BR-3): 88 nM
Structure (SMILES): Nc1ncnc2c1c(Cl)cn2[C@@H]1O[C@H](CO)[C@@H](O)[C@@H]1F [Comparative Example 6, (2R,3R,4S,5R)-5-(4-amino-5-chloro-7H-pyrrolo[2,3-d]pyrimidin-7-yl)-4-fluoro-2-(hydroxymethyl) tetrahydrofuran-3-ol]

IC50 (A427): 1140 nM
IC50 (H520): 465 nM
Structure (SMILES): Nc1ncnc2c1c(I)cn2[C@@H]1O[C@H](CO)C(O)C1(F)F (stereo partly drawn) [Comparative Example 7, (2R,3R,4S,5R)-5-(4-amino-5-iodo-7H-pyrrolo[2,3-d]pyrimidin-7-yl)-4,4-difluoro-2-(hydroxymethyl) tetrahydrofuran-3-ol, reference compound]

Structure (SMILES): Nc1ncnc2c1c(I)cn2[C@@H]1O[C@H](CO)[C@@H](OC(=O)OC2CCCC2)[C@@H]1F [Example 1, (2R,3R,4S,5R)-5-(4-amino-5-iodo-7H-pyrrolo[2,3-d]pyrimidin-7-yl)-4-fluoro-2-(hydroxymethyl)tetrahydrofuran-3-yl cyclopentyl carbonate]
antitumor effect (tumor-growth inhibition rate, IR) [2, 5]: high antitumor effect
effect on body weight (BWC) [2, 5]: mild
continuation of administration compared to Comparative Example 2-compound administration group ([2]; U-87 MG, oral every day, Example 1 15.4 mg/kg/day vs Comparative Example 2 12 mg/kg/day): longer
final day of evaluation (administration continued as long as weight loss was acceptable, until 20% or more) ([2]; oral every day, Comparative Example 2 12 mg/kg/day, Example 1 15.4 mg/kg/day): 13 days
antitumor effect (RTV) [3, 6]: remarkable antitumor effect (tumor regression was confirmed)
effect on body weight and hematological toxicity (BWC, lymphocytes T/C %) [3, 6]: low
continuation of administration compared to Comparative Example 2-compound administration group ([3]; MV-4-11, oral every day, Example 1 10.8 mg/kg/day vs Comparative Example 2 12 mg/kg/day): longer

Structure (SMILES): CC(C)OC(=O)O[C@H]1[C@H](F)[C@H](n2cc(I)c3c(N)ncnc32)O[C@@H]1CO [Example 5, (2R,3R,4S,5R)-5-(4-Amino-5-iodo-7H-pyrrolo[2,3-d]pyrimidin-7-yl)-4-fluoro-2-(hydroxymethyl)tetrahydrofuran-3-yl isopropyl carbonate]
effect versus toxicity (effect index, ratio based on IR and BWC) [4]: high compared to that of Comparative Example 2-compound administration group

Reference: US20220233566A1, “NOVEL CARBONATE COMPOUND HAVING PYRROLOPYRIMIDINE SKELETON OR PHARMACEUTICALLY ACCEPTABLE SALT THEREOF” (TAIHO PHARMACEUTICAL CO., LTD., priority 2019, published 2022)
